Measured values taken from patent US20260250318A1, “COMPOSITIONS AND METHODS FOR CROSSING THE BLOOD BRAIN BARRIER” (VOYAGER THERAPEUTICS, INC., priority 2022, published 2026).

tested on: brain; assay: Maturation of TTM-001 capsid, NGS enrichment in brain of CD-1 Outbred mice; assay type: in vivo; conditions: NGS fold-enrichment of TTM-001 matured AAV capsid variants in the brain of CD-1 Outbred mice; intravenous 1.0×10^12 VG/dose; 14 days in life; RNA; relative to non-matured TTM-001 control
Summary of the method: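 Brain enrichment read by NGS after RNA extraction and RT-PCR, expressed as fold ratio over the matching parental capsid (TTM-001 or TTM-002). Libraries, mutated around loop IV positions 449/450–466, were injected intravenously (tail vein, 1.0×10^12 VG/dose) into three female CD-1 mice; brains harvested at 14 days.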

Which “Fold enrichment over TTM-001” value does the source give for KTINSPRSPHSKAQNQQT here?
Its value is 2.264 fold.

With KTINGSGSPHSKAQSSKT as the sequence, how does the “Fold enrichment over TTM-001” value read?
Its value is 2.078 fold.

For KTINGSGSPHSKCSNQQT, which “Fold enrichment over TTM-001” value is on record?
The value was 2.020 fold.

How did the “Fold enrichment over TTM-001” value turn out when KTINGSGSPHSKAQFVLT was run?
The value was 2.006 fold.

KTINGSGSPHSLLCNQQT was tested. Which “Fold enrichment over TTM-001” value did it give?
The value was 3.644 fold.

For KTINGSGSPHSSWANQQT, which “Fold enrichment over TTM-001” value is on record?
Its value is 2.264 fold.

With KTINGSGSPHSLRSNQQT as the sequence, how does the “Fold enrichment over TTM-001” value read?
Its value is 2.778 fold.

KTINGSGSPHLRRQNQQT was tested. Which “Fold enrichment over TTM-001” value did it give?
The value was 3.493 fold.

Which “Fold enrichment over TTM-001” value does the source give for KTINGSGSPHSKAQASKT here?
Its value is 2.546 fold.

Which “Fold enrichment over TTM-001” value does the source give for KTINGSGSPHSKALRFQT here?
Its value is 3.894 fold.

For KTINGSGSPHSFARNQQT, which “Fold enrichment over TTM-001” value is on record?
Its value is 2.367 fold.

Which “Fold enrichment over TTM-001” value does the source give for KTINGSGSPHSMYLNQQT here?
Its value is 2.000 fold.

How did the “Fold enrichment over TTM-001” value turn out when KTINGSGSPHSKAQRRLT was run?
The value was 4.227 fold.

With KRLFGSGSPHSKAQNQQT as the sequence, how does the “Fold enrichment over TTM-001” value read?
The value was 2.330 fold.

For KTINGSGSPHSKRILQQT, which “Fold enrichment over TTM-001” value is on record?
The value was 2.801 fold.

How did the “Fold enrichment over TTM-001” value turn out when KTINGSGSPHLLYQNQQT was run?
The value was 2.983 fold.

KTINGSGSPHSHMENQQT was tested. Which “Fold enrichment over TTM-001” value did it give?
Its value is 2.259 fold.

With KTINGSGSPHSKLRPQQT as the sequence, how does the “Fold enrichment over TTM-001” value read?
Its value is 2.060 fold.

KTINGSGSPHTWTQNQQT was tested. Which “Fold enrichment over TTM-001” value did it give?
The value was 2.045 fold.

For KTINGSGSPHSKPTRQQT, which “Fold enrichment over TTM-001” value is on record?
The value was 3.201 fold.

With “KTINGSRSPHSKAQNRQT (peptide inserted in AAV capsid)” as the sequence, how does the “Fold enrichment over TTM-001” value read?
The value was 2.155 fold.

For KTINGSGSPHSKACASQT, which “Fold enrichment over TTM-001” value is on record?
The value was 2.775 fold.

KTINGSGSPHSKAQLIVT was tested. Which “Fold enrichment over TTM-001” value did it give?
The value was 2.235 fold.

For KTINGSGSPHSKAQVKLT, which “Fold enrichment over TTM-001” value is on record?
The value was 2.564 fold.

How did the “Fold enrichment over TTM-001” value turn out when KTINGSGSPHSLCQNQQT was run?
The value was 2.285 fold.

How did the “Fold enrichment over TTM-001” value turn out when KTINGLLSPHWKAQNQQT was run?
Its value is 4.173 fold.

Which “Fold enrichment over TTM-001” value does the source give for KTINGSGSPHRRLQNQQT here?
The value was 2.030 fold.

How did the “Fold enrichment over TTM-001” value turn out when KTINGSGSPHSRYSNQQT was run?
The value was 2.536 fold.

KTINGSGSPHSKAQLRKT was tested. Which “Fold enrichment over TTM-001” value did it give?
The value was 2.689 fold.

tested on: brains, heart, liver, muscle, and DRG of the NHPs; assay: Maturation of TTM-001 and TTM-002 capsids, NGS enrichment in NHP tissues; assay type: in vivo; conditions: NHP DRG; NGS; relative to AAV9 control
Summary of the method: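 Variants carry mutations within and flanking the loop IV peptide insert: positions 450–466 were triplet-randomized, while positions 449–466 received low-frequency point mutations. The combined pool went into two NHPs, and each peptide was scored by NGS enrichment ratio against AAV9.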

How did the “Fold Enrichment relative to AAV9, DRG (NHP)” value turn out when KTINSPRSPHSKAQNQQT was run?
Its value is 0.000 fold.

same assay, conditions: NHP brain; NGS; relative to AAV9 control

For KTINSPRSPHSKAQNQQT, which “Fold Enrichment relative to AAV9, Brain (NHP)” value is on record?
Its value is 0.000 fold.

same assay, conditions: NHP heart; NGS; relative to AAV9 control

Which “Fold Enrichment relative to AAV9, Heart (NHP)” value does the source give for KTINSPRSPHSKAQNQQT here?
Its value is 0.000 fold.

same assay, conditions: NHP liver DNA; NGS; relative to AAV9 control

For KTINSPRSPHSKAQNQQT, which “Fold Enrichment relative to AAV9, Liver DNA (NHP)” value is on record?
Its value is 1.554 fold.

same assay, conditions: NHP liver RNA; NGS; TTM-001 and TTM-002 matured AAV capsid variants; relative to AAV9 control

With KTINSPRSPHSKAQNQQT as the sequence, how does the “Fold Enrichment relative to AAV9, Liver RNA (NHP)” value read?
The value was 27.240 fold.

same assay, conditions: NHP muscle; NGS; relative to AAV9 control

With KTINSPRSPHSKAQNQQT as the sequence, how does the “Fold Enrichment relative to AAV9, Muscle (NHP)” value read?
Its value is 0.000 fold.
